Source: PubChem BioAssay (NCI)
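Exposure lasted 48 hours, with cells grown in 96-well plates and compounds tested at five concentrations. Definition used: TGI = concentration required for complete inhibition of growth.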

Key:
Assay in all cases: DTP human tumour cell line panel, 48 h
[1] = tested on: BT-549 breast
[2] = tested on: CCRF-CEM leukemia
[3] = tested on: HOP-92 NSCLC
[4] = tested on: KM12 colon
[5] = tested on: NCI-H23 lung
[6] = tested on: NCI-H460 lung
[7] = tested on: OVCAR-3 ovarian
[8] = tested on: RPMI-8226 leukemia
[9] = tested on: RXF 393 renal
[10] = tested on: SN12C renal
[11] = tested on: SNB-75 CNS
[12] = tested on: U251 CNS
[13] = tested on: UACC-62 melanoma
[14] = tested on: UO-31 renal
[15] = tested on: A549 NSCLC
[16] = tested on: COLO 205 colon
[17] = tested on: HS 578T breast
[18] = tested on: MALME-3M melanoma

| SMILES | TGI [1] [µM] | TGI [2] [µM] | TGI [3] [µM] | TGI [4] [µM] | TGI [5] [µM] | TGI [6] [µM] | TGI [7] [µM] | TGI [8] [µM] | TGI [9] [µM] | TGI [10] [µM] | TGI [11] [µM] | TGI [12] [µM] | TGI [13] [µM] | TGI [14] [µM] | TGI [15] [µM] | TGI [16] [µM] | TGI [17] [µM] | TGI [18] [µM] |
| --- | --- | --- | --- | --- | --- | --- | --- | --- | --- | --- | --- | --- | --- | --- | --- | --- | --- | --- |
| C[Si](C)(N[Si](C)(C)OCCc1ccccc1)OCCc1ccccc1 | > 100 | > 100 | > 100 | > 100 | > 100 | > 100 | > 100 | > 100 | > 100 | > 100 | > 100 | > 100 | > 100 | > 100 |  |  |  |  |
| O=C(CCCN1CCC2(CC1)CC(=O)N(N1CCOCC1)C2=O)c1ccc(F)cc1 | > 100 | > 100 |  | > 100 | > 100 | > 100 | > 100 | > 100 | > 100 | > 100 | > 100 | > 100 | > 100 | > 100 | > 100 | > 100 | > 100 | > 100 |
| CN(C)CCNC(=O)c1cccc2c(NC(CS)C(=O)O)c3ccccc3[n+](C)c12 (stereo unspecified) | 98.2 |  |  | > 100 | > 100 | > 100 | > 100 | > 100 |  | > 100 | > 100 | > 100 | > 100 | > 100 | > 100 | > 100 | > 100 | > 100 |
| N#Cc1ccc(CSC2=C(c3ccc(Cl)cc3)S/C(=C3\SC(SCc4ccc(C#N)cc4)=C(c4ccc(Cl)cc4)S3)S2)cc1 | > 100 | > 100 |  | > 100 | > 100 | > 100 | > 100 | > 100 | > 100 | > 100 |  | > 100 | > 100 |  | > 100 | > 100 | > 100 | > 100 |
| CC1CC/C(=C\c2ccc(N(C)C)cc2)C2=C1C(c1ccc(N(C)C)cc1)NC(=S)N2 (stereo unspecified) | > 100 | > 100 |  | > 100 | > 100 |  | > 100 | > 100 | > 100 | > 100 | > 100 | > 100 | > 100 | > 100 |  | > 100 | > 100 | > 100 |
| CCOC(=O)c1cc2c3c(c(C(C)=O)c(O)c2[nH]1)N(C(C)=O)CC3 | > 100 | > 100 |  | > 100 | > 100 | > 100 | > 100 | > 100 | > 100 | > 100 | > 100 | > 100 | > 100 | > 100 |  | > 100 | > 100 | > 100 |
| CC(C)CC(=O)NC(C(=O)NC(C(=O)NC(CC(C)C)C(O)CC(=O)NC(C)C(=O)NC(CC(C)C)C(O)CC(=O)O)C(C)C)C(C)C (stereo unspecified) | > 100 | > 100 | > 100 | > 100 | > 100 | > 100 | > 100 | > 100 |  | > 100 | > 100 | > 100 | > 100 | > 100 | > 100 | > 100 |  | > 100 |
| CCN(CC)CCN(C(=Nc1ccccc1)N1CCCCC1)c1ccccc1 | 47 | 46.5 |  | 23.9 | 25.6 | 24.8 | 28.3 | 8.71 | 41.1 | 29 |  | 43.3 |  | 26.5 | 45.2 | 13.1 | 27 | 40.1 |
| CC1(C)C2CC(O)C1CCC2=O (stereo unspecified) | > 100 | > 100 |  | > 100 | > 100 | > 100 | > 100 | > 100 | > 100 | > 100 | > 100 | > 100 | > 100 | > 100 | > 100 | > 100 | > 100 | > 100 |
| COc1ccc(OC)c(C2CCc3c(cnc4nc(N)nc(N)c34)C2)c1 (stereo unspecified) | 40.7 |  | 26.3 | 26.4 |  | 21.6 | 31.3 |  | 32.1 | 22 |  | 18.7 | 12.3 |  | 15 | 47.3 | 53 | 20.9 |
| O=c1[nH]nc(Cc2ccccc2)n1CCCl | > 100 | > 100 |  | > 100 | > 100 | > 100 | > 100 | > 100 | > 100 | > 100 | > 100 | > 100 | > 100 | > 100 |  | > 100 | > 100 | > 100 |
| COC(=O)C1=C(OC(=O)c2ccccc2)C(C(=O)OC)[C@@]2(O)[C@@H](C(=O)OC)[C@H](C)C[C@@H]1[C@@H]2C(=O)OC (stereo partly specified) | 78.1 | > 100 |  | > 100 | > 100 | > 100 | > 100 | > 100 | 42.9 | > 100 | > 100 | > 100 | > 100 | > 100 | 71.6 | 41.1 | > 100 | > 100 |
